The results in this text go back to patent publication US20260137706A1, “METHODS OF TREATING INFLAMMATORY DISEASES” (INTERLINE THERAPEUTICS, INC., priority 2023, published 2026).

Experiment [1] relates to NF-κB pathway (SEAP) in THP1-Dual cells. Kind of experiment: THP-1 Dual cell SEAP assay (L18-MDP stimulated). The class given is cell-based. The note with it: Homo sapiens, THP1-Dual, read-out: NF-κB THP1 IC50 bin. The method in brief:
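THP1-Dual cells (~25,000/well) were preincubated 30 min with serially diluted compounds, then stimulated with 10 ng/mL L18-MDP (final) for 20-24 h at 37 °C. Supernatant SEAP was read with QUANTI-Blue at OD 620-655 nm after 2 h. IC50 came from non-linear fits of % inhibition versus DMSO/L18-MDP controls after media-blank subtraction.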

The target of experiment [2] is T1, binding of His-XIAP(BIR2)-avi fusion protein to GST-RIPK2 fusion protein (RIPK2/XIAP) (Homo sapiens, UniProt O43353).
T1 construct: made in house; host or cells: baculovirus infected Sf9 cells
T1 sequence (O43353 1-310 limits assumed): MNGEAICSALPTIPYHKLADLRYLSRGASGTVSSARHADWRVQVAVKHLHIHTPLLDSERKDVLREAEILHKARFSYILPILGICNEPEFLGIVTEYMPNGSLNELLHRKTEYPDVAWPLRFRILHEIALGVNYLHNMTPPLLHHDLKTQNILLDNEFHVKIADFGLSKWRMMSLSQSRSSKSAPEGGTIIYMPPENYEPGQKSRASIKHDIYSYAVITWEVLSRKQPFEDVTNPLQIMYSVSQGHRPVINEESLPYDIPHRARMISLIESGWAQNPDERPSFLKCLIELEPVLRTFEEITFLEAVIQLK
Kind of experiment: RIPK2-XIAP binding competition PPI assay (TR-FRET). The following applies: RIPK2/XIAP binding competition PPI assay; for Emax: Amax, read-out: PPI Amax bin; for IC50: read-out: PPI IC50 bin. The method in brief: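 Compounds (in DMSO, 100-fold stock) incubated 120 min at 23 °C with 1 nM GST-RIPK2 (aa 1-310) and 25 nM His-XIAP(BIR2 aa 152-231)-avi, plus anti-His-XL665 and anti-GST-Tb, in pH 7.5 Tris buffer. Read-out: 665/520 nm emission ratio. Normalized to no-inhibitor (0%) and 50 nM GSK583 (−100%); Amax binned A–D.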

The target of experiment [3] is T2, GST-RIPK2 fusion protein (human RIPK2, amino acids 1-310) (Homo sapiens, UniProt O43353).
T2 construct: made in house; host or cells: baculovirus infected Sf9 cells
T2 sequence (O43353 1-310): as the sequence (O43353 1-310 limits assumed) above
Description: RIPK2 binding competition assay (TR-FRET, Tracer 199 displacement). The following applies: 10 nM Tracer 199, 1 nM GST-RIPK2, read-out: RIPK2 IC50. The method in brief:
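GST-RIPK2 (human aa 1-310, Sf9-expressed; final 1 nM) with Tracer 199 (final 10 nM) and Tb-anti-GST (final 0.5 nM) in Tris pH 7.5 buffer, 45 min at 22 °C. TR-FRET 665/620 nm ratio after 337 nm excitation; normalized to no-inhibitor (0%) and no-protein (−100%), giving IC50.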

With `C[C@@H](O)CCOc1cc2ncc(-c3cc(F)c(N)nc3F)n2cc1S(=O)(=O)C(C)(C)C` [Example 36, (R)-4-((3-(6-amino-2,5-difluoropyridin-3-yl)-6-(tert-butylsulfonyl)imidazo[1,2-a]pyridin-7-yl)oxy)butan-2-ol], the IC50 is 50 to 250 nM in experiment [1], 2.5 to 20 nM in experiment [2] and 1 to 2.5 nM in experiment [3]. Besides, in experiment [2], the Emax is more than 80%.

On to `COc1cc2ncc(-c3cc(F)c(N)nc3F)n2cc1C1(O)CCN(C)CC1` [Example 74, 4-(3-(6-amino-2,5-difluoropyridin-3-yl)-7-methoxyimidazo[1,2-a]pyridin-6-yl)-1-methylpiperidin-4-ol], for which the IC50 in experiment [1] was more than 1000 nM; in experiment [2] it was more than 20 nM; in experiment [3] it was more than 20 nM. The Emax in experiment [2] was more than 80%.

In the case of `CCCS(=O)(=O)Nc1cc(-c2cnc3cc(OC)c(S(=O)(=O)C(C)(C)CO)cn23)cc(Cl)c1OC` [Example 129, N-(3-chloro-5-(6-((1-hydroxy-2-methylpropan-2-yl)sulfonyl)-7-methoxyimidazo[1,2-a]pyridin-3-yl)-2-methoxyphenyl)propane-1-sulfonamide], the IC50 is 50 to 250 nM in experiment [1], less than 1 nM in experiment [2] and less than 1 nM in experiment [3]. The Emax in experiment [2] was more than 80%.

Turning to `COc1cc2ncc(-c3cccc(NS(=O)(=O)C4CN(C(=O)OC(C)(C)C)C4)c3)n2cc1S(=O)(=O)C(C)(C)C` [Example 155, tert-butyl 3-(N-(3-(6-(tert-butylsulfonyl)-7-methoxyimidazo[1,2-a]pyridin-3-yl)phenyl)sulfamoyl)azetidine-1-carboxylate], the IC50 in experiment [1] is more than 1000 nM; in experiment [2] it was more than 20 nM; in experiment [3], more than 20 nM. Also, in experiment [2], the Emax is more than 80%.

For `CCS(=O)(=O)Nc1cc(-c2cnc3cc(OC[C@@H](C)O)c(S(=O)(=O)C(C)(C)C)cn23)cc(F)c1OC` [Example 252, (R)-N-(5-(6-(tert-butylsulfonyl)-7-(2-hydroxypropoxy)imidazo[1,2-a]pyridin-3-yl)-3-fluoro-2-methoxyphenyl) ethanesulfonamide], the results for the IC50 in experiment [1], in experiment [2] and in experiment [3] were less than 50 nM, less than 1 nM and less than 1 nM, respectively. Also, the Emax in experiment [2] is more than 80%.

For the compound `CC(C)(C)S(=O)(=O)c1cn2c(-c3cnc4[nH]ccc4c3)cnc2cc1OCCO` [Example 53, 2-((6-(tert-butylsulfonyl)-3-(1H-pyrrolo[2,3-b]pyridin-5-yl)imidazo[1,2-a]pyridin-7-yl)oxy)ethan-1-ol], the IC50 in experiment [1] is 50 to 250 nM; in experiment [2], 1 to 2.5 nM; in experiment [3], less than 1 nM. Also, the Emax in experiment [2] was more than 80%.

In the case of `COc1cc2ncc(-c3cc(F)c(OC)c4nn(CCO)cc34)n2cc1S(=O)(=O)C(C)(C)C` [Example 122, 2-(4-(6-(tert-butylsulfonyl)-7-methoxyimidazo[1,2-a]pyridin-3-yl)-6-fluoro-7-methoxy-2HI-indazol-2-yl)ethan-1-ol], the figures for the IC50 in experiment [1], in experiment [2] and in experiment [3] were more than 1000 nM, more than 20 nM and more than 20 nM, respectively. Also, the Emax in experiment [2] is less than 30%.

Regarding `COc1cc2ncc(-c3cc(F)c(OC)c4[nH]ncc34)n2cc1S(=O)(=O)C(C)(C)C` [Example 120, 4-(6-(tert-butylsulfonyl)-7-methoxyimidazo[1,2-a]pyridin-3-yl)-6-fluoro-7-methoxy-1H-indazole], the values for the IC50 in experiment [1], in experiment [2] and in experiment [3] were more than 1000 nM, 2.5 to 20 nM and 2.5 to 20 nM, respectively. Moreover, the Emax in experiment [2] was in the range of 55 to 80%.

`COc1c(F)cc(-c2cnn3cc(OCCO)c(S(=O)(=O)C(C)(C)C)cc23)cc1NS(=O)(=O)c1cnn(C)c1` [Example 226, N-(5-(5-(tert-butylsulfonyl)-6-(2-hydroxyethoxy)pyrazolo [1,5-a]pyridin-3-yl)-3-fluoro-2-methoxyphenyl)-1-methyl-1H-pyrazole-4-sulfonamide]: the results for the IC50 in experiment [1], in experiment [2] and in experiment [3] were less than 50 nM, less than 1 nM and less than 1 nM, respectively. In addition, the Emax in experiment [2] is more than 80%.

As for `CCCS(=O)(=O)Nc1cc(-c2cnc3cc(OC)c(C(=O)N(C)C(C)C)cn23)cc(F)c1OC` [Example 205, 3-(3-fluoro-4-methoxy-5-(propylsulfonamido)phenyl)-N-isopropyl-7-methoxy-N-methylimidazo[1,2-a]pyridine-6-carboxamide], the IC50 is more than 1000 nM in experiment [1], more than 20 nM in experiment [2] and more than 20 nM in experiment [3]. Also, in experiment [2], the Emax was 55 to 80%.

`CC(C)(C)S(=O)(=O)c1cc2c(-c3cc(F)c(N)nc3F)cnn2cc1OCC(O)CO` (centres unmarked) [Example 246, 3-((3-(6-amino-2,5-difluoropyridin-3-yl)-5-(tert-butylsulfonyl)pyrazolo [1,5-a]pyridin-6-yl)oxy)propane-1,2-diol]: the IC50 in experiment [1] was 50 to 250 nM; in experiment [2], 1 to 2.5 nM; in experiment [3], 1 to 2.5 nM. Besides, the Emax in experiment [2] is more than 80%.

Consider `CCC(CO)COc1cc2ncc(-c3cc(F)c(N)nc3F)n2cc1S(=O)(=O)C(C)(C)C` (centres unmarked) [Example 48, 2-(((3-(6-amino-2,5-difluoropyridin-3-yl)-6-(tert-butylsulfonyl)imidazo[1,2-a]pyridin-7-yl)oxy)methyl)butan-1-ol], for which the IC50 in experiment [1] is 50 to 250 nM; in experiment [2], 2.5 to 20 nM; in experiment [3], 1 to 2.5 nM. In addition, in experiment [2], the Emax was more than 80%.

`COc1cc2ncc(-c3cnc4c(c3)CCCN4)n2cc1S(=O)(=O)C(C)(C)C` [Example 85, 6-(6-(tert-butylsulfonyl)-7-methoxyimidazo[1,2-a]pyridin-3-yl)-1,2,3,4-tetrahydro-1,8-naphthyridine]: the IC50 in experiment [1] is more than 1000 nM; in experiment [2], more than 20 nM; in experiment [3], more than 20 nM. Besides, in experiment [2], the Emax lay within 30 to 55%.

On to `CCS(=O)(=O)Nc1cc(-c2cnn3cc(OC)c(N4C(=O)OCC4(C)C)nc23)cc(F)c1OC` [Example 131, N-(5-(5-(4,4-dimethyl-2-oxooxazolidin-3-yl)-6-methoxypyrazolo[1,5-a]pyrimidin-3-yl)-3-fluoro-2-methoxyphenyl)ethanesulfonamide], for which the values for the IC50 in experiment [1], in experiment [2] and in experiment [3] were 250 to 1000 nM, 2.5 to 20 nM and 2.5 to 20 nM, respectively. For the same compound, in experiment [2], the Emax is more than 80%.

As for `COc1cc2ncc(-c3cc(F)c(OC)c4[nH]cnc34)n2cc1S(=O)(=O)C(C)(C)C` [Example 117, 4-(6-(tert-butylsulfonyl)-7-methoxyimidazo[1,2-a]pyridin-3-yl)-6-fluoro-7-methoxy-1H-benzo[d]imidazole], the IC50 fell in the range of 250 to 1000 nM in experiment [1], 2.5 to 20 nM in experiment [2] and 2.5 to 20 nM in experiment [3]. The Emax in experiment [2] fell in the range of 30 to 55%.

For `COc1cc2ncc(-c3cccc(NS(=O)(=O)CC4CC4)c3)n2cc1S(=O)(=O)C(C)(C)C` [Example 151, N-(3-(6-(tert-butylsulfonyl)-7-methoxyimidazo[1,2-a]pyridin-3-yl)phenyl)-1-cyclopropylmethanesulfonamide], the results for the IC50 in experiment [1], in experiment [2] and in experiment [3] were 250 to 1000 nM, 1 to 2.5 nM and 1 to 2.5 nM, respectively. The Emax in experiment [2] was more than 80%.

With `CC(C)(O)COc1cc2ncc(-c3cc(F)c(N)nc3F)n2cc1S(=O)(=O)C(C)(C)C` [Example 28, 1-((3-(6-amino-2,5-difluoropyridin-3-yl)-6-(tert-butylsulfonyl)imidazo[1,2-a]pyridin-7-yl)oxy)-2-methylpropan-2-ol], the IC50 lay within 50 to 250 nM in experiment [1], 2.5 to 20 nM in experiment [2] and 1 to 2.5 nM in experiment [3]. Also, the Emax in experiment [2] was more than 80%.

Consider `COc1cc2ncc(-c3cc(F)c(N)nc3F)n2cc1C1(OC)CCOCC1` [Example 76, 3,6-difluoro-5-(7-methoxy-6-(4-methoxytetrahydro-2H-pyran-4-yl)imidazo[1,2-a]pyridin-3-yl)pyridin-2-amine], for which the IC50 was more than 1000 nM in experiment [1], more than 20 nM in experiment [2] and more than 20 nM in experiment [3]. Moreover, the Emax in experiment [2] was more than 80%.

Regarding `COc1cc2ncc(-c3ccc4ncoc4c3)n2cc1S(=O)(=O)C(C)(C)C` [Example 110, 6-(6-(tert-butylsulfonyl)-7-methoxyimidazo[1,2-a]pyridin-3-yl)benzo[d]oxazole], the IC50 in experiment [1] is more than 1000 nM; in experiment [2], more than 20 nM; in experiment [3] it was more than 20 nM. Besides, the Emax in experiment [2] was less than 30%.

`COc1cn2ncc(-c3cc(F)c(N)nc3F)c2cc1C1(O)CCN(C)CC1` [Example 73, 4-(3-(6-amino-2,5-difluoropyridin-3-yl)-6-methoxypyrazolo[1,5-a]pyridin-5-yl)-1-methylpiperidin-4-ol]: the IC50 in experiment [1] is 250 to 1000 nM; in experiment [2] it was 2.5 to 20 nM; in experiment [3], 2.5 to 20 nM. In addition, the Emax in experiment [2] was more than 80%.
